Values of other authors, collected in US11708377B2, “Analogues and derivatives of cephalotaxine and methods for making and using the compounds” (Oregon State University, priority 2019, dated 2023).

What was measured:
[1] = background statement; lacks the ester sidechain of HHT
leukemia cells = settings: background statement, no figure given

SMILES	biological activity [1]	cytotoxicity against leukemia cells (leukemia cells)
COC1=C[C@]23CCCN2CCc2cc4c(cc2[C@@H]3[C@@H]1O)OCO4 [Cephalotaxine, (−)-Cephalotaxine]	biologically inactive	–
COC(=O)C[C@](O)(CCCC(C)(C)O)C(=O)O[C@@H]1C(OC)=C[C@]23CCCN2CCc2cc4c(cc2[C@H]13)OCO4 [HHT, (−)-Homoharringtonine]	–	nanomolar cytotoxicity
